System: Lovo tumor xenografts
Assay: Colorectal cancer xenograft model, 5-FU treatment
Assay type: in vivo, nude mice
Conditions: 5-FU 50 mg/kg/day i.p., 5 days per week for 2 weeks; Lovo(MSH2+) vs Lovo(MSH2−)
Text: Lovo-MSH2 positive and Lovo-MSH2 negative cells were stably infected with the pCDH-CMV-MCS-EF1-miRNA expression plasmid containing the full-length miR-21 and the GFP gene under the control of two different promoters (System Biosciences, Mountain View, Calif.). An empty vector was used as control. Pre-miR-21 expression and control constructs were packaged with pPACKH1 Lentivector Packaging Plasmid mix (System Biosciences) in 293-TN packaging cell line. Viruses were concentrated using PEG-It™ Virus Precipitation Solution and titers analyzed using UltraRapid Lentiviral Titer Kit (System Biosciences). Infected cells were selected by FACS analysis (FACS Calibur, Becton Dickinson Immunocytometry Systems). Infection efficiency >90% was verified by fluorescent microscopy and further confirmed by real time PCR for miR-21 expression.
Animal studies were performed according to institutional guidelines. […] Tumor volume was measured at the beginning of treatment and then once a week. The estimated tumor volume (V) was calculated by the following formula: V=W2×L×0.5, where W represents the […] tumor diameter. The individual relative tumor volume (RTV) was calculated as follows RTV=Vx/V1 where Vx is the volume in cubic millimeters at a given time and V1 is the volume at the start of treatment. […]

O=c1[nH]cc(F)c(=O)[nH]1 [5-FU, 5-fluorouracil]
efficacy of 5-FU treatment on tumor xenografts: more efficacious with Lovo(MSH2+) tumor xenografts compared to Lovo(MSH2−) tumor xenografts

Reference: patent US8946187B2, “Materials and methods related to microRNA-21, mismatch repair, and colorectal cancer” (The Ohio State University, priority 2010, dated 2015)
